Measured values as given in patent publication US20250179066A1, “ZWITTERIONIC ANTIBACTERIAL COMPOUNDS” (Hoffmann-La Roche Inc., priority 2022, published 2025).
Counter-ions that a name gives are not always drawn.

Test system: Acinetobacter baumannii ATCC17961
Assay: Antimicrobial susceptibility testing: 90% growth inhibitory concentration (IC90) determination
Type: cell-based
Details: Acinetobacter baumannii, ATCC17961, 16 h, 90% growth inhibitory concentration against Acinetobacter baumannii ATCC17961, Iso-Sensitest broth, OD 600 nm over 16 h; read-out: ATCC 17961 IC90
Procedure: The in vitro antimicrobial activity of the compounds was determined according to the following procedure: The assay used a 10-points Iso-Sensitest broth medium to measure quantitatively the in vitro activity of the compounds against Acinetobacter baumannii ATCC17961. Stock compounds in DMSO were serially twofold diluted (e.g. range from 10 to 0.0195 μM final concentration) in 384 wells microtiter plates and inoculated with 49 μL the bacterial suspension in Iso-Sensitest medium to have a final cell concentration of ˜5×10^(5) CFU/mL in a final volume/well of 50 μL/well. Microtiter plates were incubated at 35±2° C. Bacterial cell growth was determined with the measurement of optical density at λ=600 nm each min over a time course of 16 h. Growth inhibition was calculated during the logarithmic growth of the bacterial cells with determination of the concentration inhibiting 50% (IC50) and 90% (IC90) of the growth. Table 1 provides the 90% growth inhibitory concentrations (IC90) in micromoles per liter of the compounds of present invention obtained against the strain Acinetobacter baumannii ATCC17961.

IC90 [nM]	Compound
349	CN1CCN(C(=O)c2c[nH]c3cc(-n4cc(-c5cnc(C(=O)Nc6ccc(C(=O)N7CCN(C(=O)[C@H]8CC[N@+](CC(=O)O)(CC9CNC9)CC8)CC7)c(Cl)c6)n5C)c(C(F)(F)F)n4)ncc23)CC1 [Example 148, cis-2-[1-(azetidin-3-ylmethyl)-4-[4-[2-chloro-4-[[1-methyl-5-[1-[3-(4-methylpiperazine-1-carbonyl)-1H-pyrrolo[3,2-c]pyridin-6-yl]-3-(trifluoromethyl)pyrazol-4-yl]imidazole-2-carbonyl]amino]benzoyl]piperazine-1-carbonyl]piperidin-1-ium-1-yl]acetic acid. 1:1 2,2,2-trifluoroacetate]
244	Cn1c(-c2cn(-c3ccc(N)cc3F)nc2C(F)(F)F)cnc1C(=O)Nc1ccc(C(=O)N2CCN(C(=O)C3CC[N+](CCCC(=O)O)(CC4CNC4)CC3)CC2)c(Cl)c1 (stereo not shown) [Example 181, 4-[4-[4-[4-[[5-[1-(4-amino-2-fluoro-phenyl)-3-(trifluoromethyl)pyrazol-4-yl]-1-methyl-imidazole-2-carbonyl]amino]-2-chloro-benzoyl]piperazine-1-carbonyl]-1-(azetidin-3-ylmethyl)piperidin-1-ium-1-yl]butanoic acid;formate]
103	Cn1c(-c2cn(-c3ccc(O)cc3F)nc2C(F)(F)F)cnc1C(=O)Nc1ccc(C(=O)N2CCN(C(=O)[C@H]3CC[N@@+](CCCN)(CC(=O)O)CC3)CC2)c(F)c1 [Example 131, cis-2-[1-(3-aminopropyl)-4-[4-[2-fluoro-4-[[5-[1-(2-fluoro-4-hydroxy-phenyl)-3-(trifluoromethyl)pyrazol-4-yl]-1-methyl-imidazole-2-carbonyl]amino]benzoyl]piperazine-1-carbonyl]piperidin-1-ium-1-yl]acetic acid;formate]
540	CN(C)CC[N@+]1(CC(=O)O)CC[C@@H](C(=O)N2CCN(C(=O)c3ccc(NC(=O)c4ncc(-c5cn(-c6ccc(N)cc6F)nc5C(F)(F)F)n4C)cc3Cl)CC2)CC1 [Example 188, cis-2-[4-[4-[4-[[5-[1-(4-amino-2-fluoro-phenyl)-3-(trifluoromethyl)pyrazol-4-yl]-1-methyl-imidazole-2-carbonyl]amino]-2-chloro-benzoyl]piperazine-1-carbonyl]-1-[2-(dimethylamino)ethyl]piperidin-1-ium-1-yl]acetic acid;2,2,2-trifluoroacetate]
235	Cn1c(-c2cn(-c3cc4[nH]c(C(=O)N5CCSCC5)cc4cn3)nc2C(F)(F)F)cnc1C(=O)Nc1ccc(C(=O)N2CCN(C(=O)[C@H]3CC[N@+](CC(=O)O)(CC4CNC4)CC3)CC2)c(Cl)c1 [Example 122, cis-2-[1-(azetidin-3-ylmethyl)-4-[4-[2-chloro-4-[[1-methyl-5-[1-[2-(thiomorpholine-4-carbonyl)-1H-pyrrolo[3,2-c]pyridin-6-yl]-3-(trifluoromethyl)pyrazol-4-yl]imidazole-2-carbonyl]amino]benzoyl]piperazine-1-carbonyl]piperidin-1-ium-1-yl]acetic acid. 1:1 2,2,2-trifluoroacetate]
311	Cn1c(-c2cn(-c3cc4[nH]cc(C(=O)NCCO)c4cn3)nc2C(F)(F)F)cnc1C(=O)Nc1ccc(C(=O)N2CCN(C(=O)[C@H]3CC[N@+](CC(=O)O)(CC4CNC4)CC3)CC2)c(Cl)c1 [Example 146, cis-2-[1-(azetidin-3-ylmethyl)-4-[4-[2-chloro-4-[[5-[1-[3-(2-hydroxyethylcarbamoyl)-1H-pyrrolo[3,2-c]pyridin-6-yl]-3-(trifluoromethyl)pyrazol-4-yl]-1-methyl-imidazole-2-carbonyl]amino]benzoyl]piperazine-1-carbonyl]piperidin-1-ium-1-yl]acetic acid. 1:1 2,2,2-trifluoroacetate]

Continued, molecule first:

Compound	IC90 [nM]
Cn1c(-c2cn(-c3ccc(OCCN)cn3)nc2C(F)(F)F)cnc1C(=O)Nc1ccc(C(=O)N2CCN(C(=O)C3CC[N+](CC(=O)O)(CC4CNC4)CC3)CC2)c(Cl)c1 (stereo not shown) [Example 2, 2-[4-[4-[4-[[5-[1-[5-(2-aminoethoxy)-2-pyridyl]-3-(trifluoromethyl)pyrazol-4-yl]-1-methyl-imidazole-2-carbonyl]amino]-2-chloro-benzoyl]piperazine-1-carbonyl]-1-(azetidin-3-ylmethyl)piperidin-1-ium-1-yl]acetic acid. 1:1 2,2,2-trifluoroacetic acid. 1:1 2,2,2-trifluoroacetate]	330
Cn1c(-c2cn(-c3ccc(N)c(N)n3)nc2C(F)(F)F)cnc1C(=O)Nc1ccc(C(=O)N2CCN(C(=O)C3CC[N+](CC(=O)O)(CC4CNC4)CC3)CC2)c(Cl)c1 (stereo not shown) [Example 67, 2-[1-(azetidin-3-ylmethyl)-4-[4-[2-chloro-4-[[5-[1-(5,6-diamino-2-pyridyl)-3-(trifluoromethyl)pyrazol-4-yl]-1-methyl-imidazole-2-carbonyl]amino]benzoyl]piperazine-1-carbonyl]piperidin-1-ium-1-yl]acetic acid. 1:1 2,2,2-trifluoroacetate]	720
COCC1CN(C(=O)c2ccc(NC(=O)c3ncc(-c4cn(-c5ccc(N)cn5)nc4C(F)(F)F)n3C)cc2Cl)CCN1C(=O)C1CC[N+](CC(=O)O)(CC2CNC2)CC1 (stereo not shown) [Example 97, 2-[4-[4-[4-[[5-[1-(5-amino-2-pyridyl)-3-(trifluoromethyl)pyrazol-4-yl]-1-methyl-imidazole-2-carbonyl]amino]-2-chloro-benzoyl]-2-(methoxymethyl)piperazine-1-carbonyl]-1-(azetidin-3-ylmethyl)piperidin-1-ium-1-yl]acetic acid. 1:1 formate]	1840
C[C@H](N)CNc1ccc(-n2cc(-c3cnc(C(=O)Nc4ccc(C(=O)N5CCN(C(=O)C6CC[N+](CC(=O)O)(CC7CNC7)CC6)CC5)c(Cl)c4)n3C)c(C(F)(F)F)n2)nc1 (stereo partly drawn) [Example 19, 2-[4-[4-[4-[[5-[1-[5-[[(2S)-2-Aminopropyl]amino]-2-pyridyl]-3-(trifluoromethyl)pyrazol-4-yl]-1-methyl-imidazole-2-carbonyl]amino]-2-chloro-benzoyl]piperazine-1-carbonyl]-1-(azetidin-3-ylmethyl)piperidin-1-ium-1-yl]acetic Acid.1:1 formic Acid.1:1 formate]	260
Cn1c(-c2cn(-c3ccc(N)nc3)nc2C(F)(F)F)cnc1C(=O)Nc1ccc(C(=O)N2CCN(C(=O)C3CC[N+](CC(=O)O)(CC4CNC4)CC3)CC2)c(Cl)c1 (stereo not shown) [Example 7, 2-[4-[4-[4-[[5-[1-(6-amino-3-pyridyl)-3-(trifluoromethyl)pyrazol-4-yl]-1-methyl-imidazole-2-carbonyl]amino]-2-chloro-benzoyl]piperazine-1-carbonyl]-1-(azetidin-3-ylmethyl)piperidin-1-ium-1-yl]acetic acid. 1:1 2,2,2-trifluoroacetate]	1480
Cc1cc(NC(=O)c2ncc(-c3cn(-c4ccc(O)cc4F)nc3C(F)(F)F)n2C)ccc1C(=O)N1CCN(C(=O)[C@H]2CC[N@@+](CCCN)(CC(=O)O)CC2)CC1 [Example 110, cis-2-[1-(3-aminopropyl)-4-[4-[4-[[5-[1-(2-fluoro-4-hydroxy-phenyl)-3-(trifluoromethyl)pyrazol-4-yl]-1-methyl-imidazole-2-carbonyl]amino]-2-methyl-benzoyl]piperazine-1-carbonyl]piperidin-1-ium-1-yl]acetic acid. 1:1 2,2,2-trifluoroacetate]	207
Cn1c(-c2cn(-c3ccc4[nH]ccc4n3)nc2C(F)(F)F)cnc1C(=O)Nc1ccc(C(=O)N2CCN(C(=O)CCC[N+](CCCN)(CCCN)CC(=O)O)CC2)c(Cl)c1 [Example 13, bis(3-aminopropyl)-(carboxymethyl)-[4-[4-[2-chloro-4-[[1-methyl-5-[1-(1H-pyrrolo[3,2-b]pyridin-5-yl)-3-(trifluoromethyl)pyrazol-4-yl]imidazole-2-carbonyl]amino]benzoyl]piperazino]-4-keto-butyl]ammonium. 1:1 2,2,2-trifluoroacetic acid. 1:1 2,2,2-trifluoroacetate]	200
COc1ccc(-n2cc(-c3cnc(C(=O)Nc4ccc(C(=O)N5CCN(C(=O)C6CC[N+](CC(=O)O)(CC7CNC7)CC6)CC5)c(Cl)c4)n3C)c(C(F)(F)F)n2)nc1 (stereo not shown) [Example 22, 2-[1-(azetidin-3-ylmethyl)-4-[4-[2-chloro-4-[[5-[1-(5-methoxy-2-pyridyl)-3-(trifluoromethyl)pyrazol-4-yl]-1-methyl-imidazole-2-carbonyl]amino]benzoyl]piperazine-1-carbonyl]piperidin-1-ium-1-yl]acetic acid. 1:1 formate]	330
Cn1c(-c2cn(-c3ccc(N)cn3)nc2C(F)(F)F)cnc1C(=O)Nc1ccc(C(=O)N2CCN(C(=O)[C@@H](N)CC(=O)O)CC2)c(Cl)c1 [Example 91, (3S)-3-amino-4-[4-[4-[[5-[1-(5-amino-2-pyridyl)-3-(trifluoromethyl)pyrazol-4-yl]-1-methyl-imidazole-2-carbonyl]amino]-2-chloro-benzoyl]piperazino]-4-keto-butyric acid. 1:1 2,2,2-trifluoroacetic acid]	1530
CN1CCN(c2ccc(-n3cc(-c4cnc(C(=O)Nc5ccc(C(=O)N6CCN(C(=O)C7CC[N+](CC(=O)O)(CC8CNC8)CC7)CC6)c(Cl)c5)n4C)c(C(F)(F)F)n3)nc2)CC1 (stereo not shown) [Example 53, 2-[1-(azetidin-3-ylmethyl)-4-[4-[2-chloro-4-[[1-methyl-5-[1-[5-(4-methylpiperazino)-2-pyridyl]-3-(trifluoromethyl)pyrazol-4-yl]imidazole-2-carbonyl]amino]benzoyl]piperazine-1-carbonyl]piperidin-1-ium-1-yl]acetic acid. 1:1 formate]	550
